Test results from US20120088808A1, “CRYSTAL FORMS OF SAXAGLIPTIN” (SANDOZ AG, priority 2009, published 2012).
Counter-ions that a name gives are not always drawn.

Key:
Type in all cases: physicochemical
[1] = Water content by the Karl Fischer method
Procedure: The water content is determined according to the Karl Fischer method.

[2] = Stability of the crystal form against relative humidity (polymorphic transformation); settings: for relative humidity above which the form transforms to known Dihydrate H2-1: transformation not reversible, hydrochloride
Procedure: Infrared spectra (IR) were collected on a MKII Golden Gate™ Single Reflection Diamond ATR (attenuated total reflection) cell with a Bruker Tensor 27 FTIR spectrometer with 4 cm^−1 resolution. To collect a spectrum a spatula tip of a sample was applied to the surface of the diamond in powder form. Then the sample was pressed onto the diamond with a sapphire anvil and the spectrum was recorded. A spectrum of the clean diamond was used as background spectrum. A typical precision of the wavenumber values is in the range of about ±2 cm^−1. Thus, an infrared peak that appears at 1716 cm^−1 can appear between 1714 and 1718 cm^−1 on most infrared spectrometers under standard conditions. A sample was stored at 45-49% relative humidity for 12 hours.

[3] = Thermogravimetric analysis (mass / water loss)
Procedure: Thermogravimetric analysis was performed with the thermogravimetric system TGA-7 using the Pyris Software for Windows NT (Perkin-Elmer, Norwalk, Conn., USA), 50 μl platinum pans, nitrogen purge gas (sample purge: 20 ml min^−1, balance purge: 40 ml min^−1).

[4] = Moisture sorption isotherm / water content at defined relative humidity, 25° C.
Procedure: The moisture sorption isotherm was recorded with a SPS-11 moisture sorption analyzer (MD Mess-technik, Ulm, D). The measurement cycle was started at 0% relative humidity (RH), increased in 10% steps up to 90% RH and in a 5% step up to 95% RH. The equilibrium condition for each step was set to a constant mass ±0.003% over 49 min. The temperature was 25±0.1° C.

[5] = at 40% relative humidity at 25° C.

In the case of `N#C[C@@H]1C[C@@H]2CC2N1C(=O)[C@@H](N)C12CC3CC(CC(O)(C3)C1)C2` (stereo partly drawn) [form HT-IV S, Saxagliptin hydrochloride], the “Water (KF)” value ([1]; after drying in vacuum oven at 50° C. about 10 hours, then about 80° C. for 5 hours) is reported as 0.7%, the “Water (KF)” value ([1]; sample stored at 45-49% relative humidity for 12 hours) is reported as 1.2% and the “change in the crystal form (FTIR)” value ([2]; after storage at 45-49% relative humidity for 12 hours) is reported as “No change in the crystal form”.
With `N#C[C@@H]1C[C@@H]2CC2N1C(=O)[C@@H](N)C12CC3CC(CC(O)(C3)C1)C2` (stereo partly drawn) [form HT-S, Saxagliptin hydrochloride] the “water loss based on thermogravimetric analysis” value ([3]; FIG. 6) was “not more than 0.5 % w/w”.
In the case of `N#C[C@@H]1C[C@@H]2CC2N1C(=O)[C@@H](N)C12CC3CC(CC(O)(C3)C1)C2` (stereo partly drawn) [form I-S, Saxagliptin hydrochloride], the “water content (Karl Fischer apparatus)” value ([1]; crystalline form as obtained in example 1) is reported as 1.2 % w/w, the water content ([4]; at about 50% relative humidity at 25° C., reversible) is reported as “about 1.5%” and the “fate of the water when lowering the relative humidity” value ([4]; relative humidity at 25° C. lowered to about 0.5%, reversible on exposure to about 50% humidity) is reported as “lost completely”. The “relative humidity at which the form is stable” value [2] was “below 50 % relative humidity” and the “relative humidity above which the form transforms to known Dihydrate H2-1” value ([2]; listed as Form I-S) was “Above 50 % relative humidity”.
For `N#C[C@@H]1C[C@@H]2CC2N1C(=O)[C@@H](N)C12CC3CC(CC(O)(C3)C1)C2` (stereo partly drawn) [form IV-S, Saxagliptin hydrochloride], the “water content (moisture sorption analysis)” value ([4]; at 0% relative humidity, process reversible) was 12.8%, the “water content (moisture sorption analysis)” value [4, 5] was 13.1% and the “water corresponding to the water content” value [4, 5] was 2.94 mol of water. The “water corresponding to the TGA mass loss” value ([3]; up to 100° C.) was 2.86 mol of water, the “mass loss by thermogravimetric analysis” value ([3]; up to 100° C., FIG. 11) was “about 12.8%” and the “relative humidity above which the form transforms to known Dihydrate H2-1” value [2] was “above 40 % relative humidity”.
